Tests used:
Type in all cases: cell-based, C57BL/6 mice
[1] = system: bone marrow-derived macrophages (BMM); test: Differentiation and TLR-agonist activation (CD86) of bone marrow-derived macrophages cultured with iron
Experimental: (§1) Bone Marrow derived macrophages (BMM) were prepared from the femur and tibias of C57BL/6 mice between 6 and 8 weeks of age. Bone marrow cells were cultured for 7-8 days at 37° C. and 5% CO2 in at 2×10^6 cells/ml in RPMI 1640 medium (Invitrogen) containing 10% FBS (v/v; Biowest), penicillin/streptomycin and 15% supernatant of L929 cells (v/v) as a source of M-CSF in the presence or in the absence of FeCl3-nitrilotriacetate (FeCl3-NTA; 10-60 μM as indicated). In some conditions, lipopolysaccharide (LPS) (150 ng/ml) (Sigma-Aldrich), peptidoglycan (PGN) (15 μg/ml), Poly-IC (50 μg/ml) (all from cayla-Invivogen, Toulouse, France) were added 12 hours before BBMs analysis on day 8.
Cells suspensions were prepared from cell culture or tissue and were incubated with anti-FcγR mAb 2.4G2 to block IgG receptors before cell staining for specific surface markers. Cells (1·10^6) were then stained at 4° C. in PBS containing 1% BSA with antibodies against mouse CD11b (M1/70, BioLegend), F4/80 (BM8, eBioscience), CD86 (GL-1, BioLegend), Ly6G (1A8, BD Biosciences), Ly6C (HK1.4, BioLegend). The presence of macrophages (CD11b^+F4/80^+Ly6G^− cells) in the peritoneum was analyzed by flow cytometry.

[2] = system: bone marrow-derived macrophages (BMM); test: Cytokine production in culture supernatant of BMM stimulated with LPS; conditions: LPS-Fe-BMM vs LPS-BMM
Experimental: as §1
Kidney tissues were homogenized in 300 μl of RIPA buffer supplemented with phosphatase and protease inhibitors cocktail (Sigma-Aldrich) for 30 s. Samples were cooled on ice for 30 min. Lysates were finally centrifuged at 10 000 g at 4° C. The cytokines IL-6, TNF-α, MCP-1, IL-10 and IL-12 were measured simultaneously by cytometric bead array (CBA) using mouse inflammation kit (according to the manufacturer's instruction (BD biosciences). Results were analyzed using FCAP array software. Proteins were quantified in supernatants by the bicinchoninic acid (BCA) method according to the manufacturer's instructions (Pierce). Cytokine concentrations were normalized to total protein concentration and expressed as picograms per milligram of total tissue protein.

[3] = system: bone marrow-derived macrophages (BMM); test: Comparative gene-chip analysis of macrophages treated or not with soluble iron and LPS; conditions: data not shown
Experimental: as §1
To further investigate whether iron load could influence macrophage activation, the inventors analyzed responses to TLR agonists. […] Increased iron levels in cultures promoted macrophage unresponsiveness to LPS both when it was added at the onset of cultures from primary bone marrow progenitors (day 0) or to cultures of almost completely differentiated cells (90% CD11b+ and F4/80+BMM; day 4) (data not shown). Thus, increased extracellular iron load impairs macrophage activation. To gain insight into the molecular mechanisms involved in iron load-dependent inhibition of macrophage inflammatory responses, the inventors performed comparative gene-chip analysis of macrophages treated or not with soluble iron (Fe-NTA, 60 μM) and subjected or not to LPS treatment. Venn diagram analysis from Affymetrix® microarray chips confirmed that the overall response to LPS differed between control (BMM) and iron-treated (Fe-BMM) macrophages (data not shown). Comparison Gene Ontology (GO) analysis was further performed to test the biological relevance of genes differing between these conditions.

[4] = system: bone marrow-derived macrophages (BMM); test: Reactive oxygen species (ROS) assessment by DCFH fluorescence; conditions: BMM differentiated with 10 or 20 μM FeCl3-NTA for 7 days, LPS 150 ng/mL 3 hours; vs control macrophages
Experimental: as §1
Bone-marrow derived macrophages (BMM) were stimulated by LPS (150 ng/ml) to induce ROS production. After 3 hours, BMM were washed with PBS and 5 μM dichlorodihydrofluorescein-diacetate (DCFH-DA) was added and incubated for 20 min at 37° C. Cells were washed again and taken to flow cytometer to ROS analysis. FeCl3-NTA was used as mentioned before and NaOH was used as vehicle.

[5] = 60 μM, LPS-Fe-BMM compared to LPS-BMM

Substance: FeCl3-nitrilotriacetate [Fe-NTA]
- CD86 up-regulation in response to TLR4 agonist (LPS) ([1]; BMM cultured with 20 or 60 μM iron, LPS 150 ng/mL overnight): not able to up-regulate CD86
- CD86 up-regulation in response to TLR2 agonist (PGN) ([1]; BMM cultured with 20 or 60 μM iron, PGN overnight): not able to up-regulate CD86
- CD86 up-regulation in response to TLR3 agonist (poly I:C) ([1]; BMM cultured with 20 or 60 μM iron, poly-IC overnight): not able to up-regulate CD86
- macrophage differentiation (cell morphology, CD11b and F4/80 expression) ([1]; BMM differentiated with 20 μM and 60 μM, data not shown): not affected
- secretion of IL-6 [2]: impaired secretion
- secretion of MCP-1 [2]: impaired secretion
- secretion of TNF-α [2]: impaired secretion
- genes implicated in inflammatory response [3, 5]: downregulated
- genes involved in NF-κB responses [3, 5]: down-regulated
- expression of genes involved in anti-oxidant responses ([3]; Fe-BMM compared to control cells): Increased expression
- expression of genes characterizing M1 or M2 phenotypes ([3]; increased extracellular iron levels): inhibited
- ROS responses to LPS stimulation [4]: impaired
